Measured values published in ChEMBL document CHEMBL1150409, “Development of paramagnetic probes for molecular recognition studies in protein kinases” (J Med Chem, 2008).
Activity calls are given as the source filed them. The rule behind the calls is not given here. Peptide text beside a SMILES is read from it. * marks the point of attachment. X1 = O=C(NCCCN*)c1ccc(-c2n[nH]c3ccccc23)cc1

Columns and labels:
[1] = biological target: Mitogen-activated protein kinase 8 (Homo sapiens, UniProt P45983); assay: Inhibition of JNK1 by TR-FRET assay
[2] = biological target: Mitogen-activated protein kinase 9 (Homo sapiens) (UniProt P45984); assay: Displacement of biotin-labeled pep-JIP1 from GST fused JNK2 upto 200 uM by DELFIA assay
[3] = biological target: Mitogen-activated protein kinase 14 (Homo sapiens) (UniProt Q16539); assay: Inhibition of MAPK p38alpha upto 100 uM
[4] = biological target: Mitogen-activated protein kinase 9 (Homo sapiens) (UniProt P45984); assay: Displacement of biotin-labeled pep-JIP1 from GST fused JNK2 by DELFIA assay

Chain of Mitogen-activated protein kinase 8 (P45983 whole entry, the tested form may be a part): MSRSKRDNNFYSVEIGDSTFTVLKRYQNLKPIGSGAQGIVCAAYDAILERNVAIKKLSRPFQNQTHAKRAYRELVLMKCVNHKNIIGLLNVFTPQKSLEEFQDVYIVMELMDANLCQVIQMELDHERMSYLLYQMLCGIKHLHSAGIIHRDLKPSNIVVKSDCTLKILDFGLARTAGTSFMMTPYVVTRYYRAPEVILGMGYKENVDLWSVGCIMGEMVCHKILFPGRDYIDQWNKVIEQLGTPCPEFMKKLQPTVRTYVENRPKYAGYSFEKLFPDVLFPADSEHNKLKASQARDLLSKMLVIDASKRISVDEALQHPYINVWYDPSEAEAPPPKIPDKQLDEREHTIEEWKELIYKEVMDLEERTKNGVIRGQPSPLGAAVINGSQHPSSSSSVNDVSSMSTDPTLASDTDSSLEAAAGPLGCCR
Chain of Mitogen-activated protein kinase 9 (Homo sapiens) (P45984 whole entry, looked up, the tested form may be a part): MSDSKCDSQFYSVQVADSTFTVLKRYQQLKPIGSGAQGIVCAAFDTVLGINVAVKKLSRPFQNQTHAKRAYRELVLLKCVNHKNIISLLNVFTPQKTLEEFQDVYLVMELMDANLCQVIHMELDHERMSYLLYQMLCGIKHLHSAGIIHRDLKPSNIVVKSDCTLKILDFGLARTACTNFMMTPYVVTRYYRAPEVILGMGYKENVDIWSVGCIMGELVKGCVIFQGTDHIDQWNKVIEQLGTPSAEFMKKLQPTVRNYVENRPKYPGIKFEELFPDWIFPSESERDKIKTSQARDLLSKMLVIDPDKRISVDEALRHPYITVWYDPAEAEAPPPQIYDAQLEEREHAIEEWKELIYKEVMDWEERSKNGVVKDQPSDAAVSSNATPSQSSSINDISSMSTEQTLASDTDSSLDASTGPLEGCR
Chain of Mitogen-activated protein kinase 14 (Homo sapiens) (Q16539 whole entry, the tested form may be a part): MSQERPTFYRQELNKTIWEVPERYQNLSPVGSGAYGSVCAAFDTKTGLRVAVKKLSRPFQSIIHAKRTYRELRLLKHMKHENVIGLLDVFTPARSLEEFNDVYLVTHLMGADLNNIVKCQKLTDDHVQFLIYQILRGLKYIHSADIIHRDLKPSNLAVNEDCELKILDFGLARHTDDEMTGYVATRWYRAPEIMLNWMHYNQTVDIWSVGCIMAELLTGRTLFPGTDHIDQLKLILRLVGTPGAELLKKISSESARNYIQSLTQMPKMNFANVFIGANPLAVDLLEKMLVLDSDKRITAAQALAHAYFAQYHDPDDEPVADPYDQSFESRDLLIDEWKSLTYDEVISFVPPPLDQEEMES

Compound | IC50 [1] | Activity [2] | IC50 [4] | further results
O=C(O)CCCNC(=O)c1ccc(-c2n[nH]c3ccccc23)cc1 | 1400 nM |  |  | 
CC1(C)CC(NC(=O)CCCNC(=O)c2ccc(-c3n[nH]c4ccccc34)cc2)CC(C)(C)N1O | 1200 nM |  |  | 
CC(=O)N[C@@H](CC(C)C)C(=O)N[C@@H](CC(N)=O)C(=O)N[C@@H](CC(C)C)C(=O)O (Ac-Leu-Asn-Leu-OH) |  | inactive |  | 
CC(=O)N[C@@H](CCCNC(=N)N)C(=O)N1CCC[C@H]1C(=O)N[C@H](C(=O)N[C@H](C(=O)N[C@@H](CC(C)C)C(=O)N[C@@H](CC(N)=O)C(=O)N[C@@H](CC(C)C)C(=O)O)[C@@H](C)O)[C@@H](C)O (Ac-RPTTLNL-OH) |  |  | 53000 nM | 

Second part, led by results:

IC50 [1] | Activity [2] | IC50 [4] | Compound | further results
 | inactive |  | CC(=O)N[C@@H](CC(C)C)C(=O)N[C@@H](CC(N)=O)C(=O)N[C@@H](CC(C)C)C(=O)NCC(=O)NCC(=O)O (Ac-LNLGG-OH) | 
295 nM |  | 20 nM | CC(=O)N[C@@H](CC(C)C)C(=O)N[C@@H](CC(N)=O)C(=O)N[C@@H](CC(C)C)C(=O)NCC(=O)NCC(=O)NCCCNC(=O)c1ccc(-c2n[nH]c3ccccc23)cc1 (Ac-LNLGG-X1) | Activity [3]: inactive
